As a reminder, the IC50 is the midpoint of a concentration-inhibition curve. Low values mean greater potency, high ones weaker potency.

The values below come from patent publication US20100076015A1, “Aminopyridine Derivatives” (VANTIA LIMITED, priority 2008, published 2010).

T1 sequence (P06870 25-262): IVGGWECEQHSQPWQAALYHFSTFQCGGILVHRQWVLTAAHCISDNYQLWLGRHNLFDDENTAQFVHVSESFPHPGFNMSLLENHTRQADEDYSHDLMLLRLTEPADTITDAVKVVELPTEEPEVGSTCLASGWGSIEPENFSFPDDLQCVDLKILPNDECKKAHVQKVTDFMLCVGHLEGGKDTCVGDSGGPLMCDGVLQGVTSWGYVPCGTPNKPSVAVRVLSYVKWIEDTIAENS

The test addresses T1, Human KLK1 (Homo sapiens, UniProt P06870).
T1 construct: purchased Callbiochem (Calbiochem)
In words: Determination of the IC50 for KLK1 (fluorogenic substrate H-DVal-Leu-Arg-AFC). The conditions noted are these: 37° C. It is filed as biochemical. Put shortly:
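Human KLK1 incubated at 37° C with fluorogenic substrate H-DVal-Leu-Arg-AFC and a range of test compound concentrations. Residual activity taken as initial reaction rate from absorbance change at 410 nm; IC50 derived from these rates.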
`Nc1ccc(CNC(=O)[C@H](Cc2ccc(F)c(F)c2)NC(=O)[C@H]2CCCN2Cc2ccccc2)cn1` [Example 140, (R)-1-Benzyl-pyrrolidine-2-carboxylic acid [(S)-1-[(6-amino-pyridin-3-ylmethyl)-carbamoyl]-2-(3,4-difluoro-phenyl)-ethyl]-amide]: half-maximal inhibition (IC50) required 4.3 nM.
The value for `C[C@@H](N)C(=O)N[C@@H](CC1CCCC2CCCCC21)C(=O)NCc1ccc(N)nc1` (stereo partly drawn) [Example 18, (R)-2-Amino-N-[(S)-1-[(6-amino-pyridin-3-ylmethyl)-carbamoyl]-2-(decahydro-naphthalen-1-yl)-ethyl]-propionamide] was 5 nM.
Consider `Nc1ccc(CNC(=O)[C@H](Cc2ccc(F)cc2)NC(=O)c2cc3ccccc3[nH]2)cn1` [Example 330, 1H-Indole-2-carboxylic acid [(S)-1-[(6-amino-pyridin-3-ylmethyl)-carbamoyl]-2-(4-fluoro-phenyl)-ethyl]-amide], for which inhibition was half-maximal at 23.6 nM (IC50).
`C[C@H](C(=O)N[C@@H](Cc1ccc(Cl)c(Cl)c1)C(=O)NCc1ccc(N)nc1)N1CCCCC1` [Example 402, (R)—N-[(S)-1-[(6-Amino-pyridin-3-ylmethyl)-carbamoyl]-2-(3,4-dichloro-phenyl)-ethyl]-2-piperidin-1-yl-propionamide] gave a concentration for half-maximal inhibition (IC50) of 13 nM.
The value for `Cc1cc(C)c(C(=O)N[C@@H](Cc2ccc(F)c(F)c2)C(=O)NCc2ccc(N)nc2C)[nH]1` [Example 284, 3,5-Dimethyl-1H-pyrrole-2-carboxylic acid [(S)-1-[(6-amino-2-methyl-pyridin-3-ylmethyl)-carbamoyl]-2-(3,4-difluoro-phenyl)-ethyl]-amide] was 5.2 nM; that for `Cc1cc(C)c(C(=O)N[C@@H](Cc2ccccc2)C(=O)NCc2ccc(N)nc2)[nH]1` [Example 237, 3,5-Dimethyl-1H-pyrrole-2-carboxylic acid {(S)-1-[(6-amino-pyridin-3-ylmethyl)-carbamoyl]-2-phenyl-ethyl}-amide] was 10.9 nM; that for `NCC(=O)N[C@@H](CC1CCCC2CCCCC21)C(=O)NCc1ccc(N)nc1` (stereo partly drawn) [Example 17, (S)-2-(2-Amino-acetylamino)-N-(6-amino-pyridin-3-ylmethyl)-3-(decahydro-naphthalen-1-yl)-propionamide] was 211 nM.
Take `CCC(C)[C@H](N)C(=O)N[C@@H](CC1CCCC2CCCCC21)C(=O)NCc1ccc(N)nc1` (stereo partly drawn) [Example 12, (S)-2-Amino-3-methyl-pentanoic acid [(S)-1-[(6-amino-pyridin-3-ylmethyl)-carbamoyl]-2-(decahydro-naphthalen-1-yl)-ethyl]-amide]: the midpoint of inhibition, the IC50, lay at 6.3 nM.
For the compound `CCN(CC)CC(=O)N[C@@H](Cc1ccc(F)cc1)C(=O)NCc1ccc(N)nc1C` [Example 428, (S)—N-(6-Amino-2-methyl-pyridin-3-ylmethyl)-2-(2-diethylamino-acetylamino)-3-(4-fluoro-phenyl)-propionamide], 9.9 nM corresponded to half-maximal inhibition (IC50).
As for “(S)—N-{(R)-1-[(6-Amino-pyridin-3-ylmethyl)-carbamoyl]-2,2-dicyclohexyl-ethyl}-2-dimethylamino-propionamide [Example 434]”, the figure is 43.9 nM; as for `CCN(C)[C@@H](C)C(=O)N[C@@H](Cc1ccc(F)cc1)C(=O)NCc1ccc(N)nc1` [Example 367, (S)—N-[(S)-1-[(6-Amino-pyridin-3-ylmethyl)-carbamoyl]-2-(4-fluoro-phenyl)-ethyl]-2-(ethyl-methyl-amino)-propionamide], 10.8 nM.
As for `CN1CCC[C@@H]1C(=O)N[C@@H](Cc1ccccc1F)C(=O)NCc1ccc(N)nc1` [Example 108, (R)-1-Methyl-pyrrolidine-2-carboxylic acid [(S)-1-[(6-amino-pyridin-3-ylmethyl)-carbamoyl]-2-(2-fluoro-phenyl)-ethyl]-amide], the figure is 34 nM.
The value for `CN1CCCC1C(=O)NC(Cc1c(F)c(F)c(F)c(F)c1F)C(=O)NCc1ccc(N)nc1` [Example 97, (R)-1-Methyl-pyrrolidine-2-carboxylic acid {(S)-1-[(6-amino-pyridin-3-ylmethyl)-carbamoyl]-2-pentafluorophenyl-ethyl}-amide] was 45.2 nM; that for `Nc1ccc(CNC(=O)[C@H](Cc2ccc(F)cc2)NC(=O)CN2CCCCC2)cn1` [Example 379, (S)—N-(6-Amino-pyridin-3-ylmethyl)-3-(4-fluoro-phenyl)-2-(2-piperidin-1-yl-acetylamino)-propionamide] was 128 nM.
For the compound `Cc1nc(N)ccc1CNC(=O)[C@H](Cc1ccc(F)cc1)NC(=O)[C@H]1CCCN1C` [Example 204, (R)-1-Methyl-pyrrolidine-2-carboxylic acid [(S)-1-[(6-amino-2-methyl-pyridin-3-ylmethyl)-carbamoyl]-2-(4-fluoro-phenyl)-ethyl]-amide], 5.9 nM corresponded to half-maximal inhibition (IC50).
The value for `Nc1ccc(CNC(=O)[C@H](Cc2ccc(F)c(F)c2)NC(=O)CN2CCc3ccccc3C2)cn1` [Example 172, (S)—N-(6-Amino-pyridin-3-ylmethyl)-3-(3,4-difluoro-phenyl)-2-(2-3,4-dihydro-1H-isoquinolin-2-yl-acetylamino)-propionamide] was 12.7 nM; that for `CCC(C)[C@H](C(=O)N[C@@H](Cc1ccc(F)c(F)c1)C(=O)NCc1ccc(N)nc1)N(C)C` (stereo partly drawn) [Example 358, (R)-2-Dimethylamino-3-methyl-pentanoic acid [(S)-1-[(6-amino-pyridin-3-ylmethyl)-carbamoyl]-2-(3,4-difluoro-phenyl)-ethyl]-amide] was 10.4 nM.
`CC(C)N1CCC[C@@H]1C(=O)N[C@@H](Cc1ccc(Cl)c(Cl)c1)C(=O)NCc1ccc(N)nc1` [Example 117, (R)-1-Isopropyl-pyrrolidine-2-carboxylic acid [(S)-1-[(6-amino-pyridin-3-ylmethyl)-carbamoyl]-2-(3,4-dichloro-phenyl)-ethyl]-amide] registered an IC50 of 0.45 nM.
As for `Cc1cc[nH]c1C(=O)N[C@@H](Cc1cccc(F)c1)C(=O)NCc1ccc(N)nc1` [Example 269, 3-Methyl-1H-pyrrole-2-carboxylic acid [(S)-1-[(6-amino-pyridin-3-ylmethyl)-carbamoyl]-2-(3-fluoro-phenyl)-ethyl]-amide], the figure is 26.1 nM.
As for `CN1CCC[C@@H]1C(=O)N[C@@H](Cc1ccc2ccccc2n1)C(=O)NCc1ccc(N)nc1` [Example 114, (R)-1-Methyl-pyrrolidine-2-carboxylic acid {(S)-1-[(6-amino-pyridin-3-ylmethyl)-carbamoyl]-2-quinolin-2-yl-ethyl}-amide], the figure is 28.4 nM; as for `CN1CCC[C@H]1C(=O)N[C@@H](Cc1ccc(F)c(F)c1)C(=O)NCc1ccc(N)nc1` [Example 116, (S)-1-Methyl-pyrrolidine-2-carboxylic acid [(S)-1-[(6-amino-pyridin-3-ylmethyl)-carbamoyl]-2-(3,4-difluoro-phenyl)-ethyl]-amide], 16.1 nM.
In the case of `CCC(C)[C@@H](N)C(=O)N[C@@H](Cc1ccccc1C)C(=O)NCc1ccc(N)nc1` (stereo partly drawn) [Example 28, (R)-2-Amino-3-methyl-pentanoic acid {(S)-1-[(6-amino-pyridin-3-ylmethyl)-carbamoyl]-2-o-tolyl-ethyl}-amide], the IC50 was determined as 32.1 nM. Against the preceding compound, the IC50 is about 2-fold higher.
The value for `CC(C)N(C)[C@@H](CO)C(=O)N[C@@H](CC1CCCCC1)C(=O)NCc1ccc(N)nc1` [Example 388, (S)—N-{(S)-1-[(6-Amino-pyridin-3-ylmethyl)-carbamoyl]-2-cyclohexyl-ethyl}-3-hydroxy-2-(isopropyl-methyl-amino)-propionamide] was 22.2 nM; that for `CN(C)CC(=O)N[C@@H](Cc1ccc(Cl)c(Cl)c1)C(=O)NCc1ccc(N)nc1` [Example 153, (S)—N-(6-Amino-pyridin-3-ylmethyl)-3-(3,4-dichloro-phenyl)-2-(2-dimethylamino-acetylamino)-propionamide] was 69.9 nM; that for `COc1ccc(C[C@H](NC(=O)c2[nH]c(C)cc2C)C(=O)NCc2ccc(N)nc2)cc1` [Example 254, 3,5-Dimethyl-1H-pyrrole-2-carboxylic acid [(S)-1-[(6-amino-pyridin-3-ylmethyl)-carbamoyl]-2-(4-methoxy-phenyl)-ethyl]-amide] was 37.2 nM.
`CCN(CC)[C@@H](C)C(=O)N[C@@H](Cc1ccc(F)cc1)C(=O)NCc1ccc(N)nc1` [Example 376, (S)—N-[(S)-1-[(6-Amino-pyridin-3-ylmethyl)-carbamoyl]-2-(4-fluoro-phenyl)-ethyl]-2-diethylamino-propionamide] yielded an IC50 of 2.7 nM.
As for `Nc1ccc(CNC(=O)[C@H](Cc2ccc(Cl)c(Cl)c2)NC(=O)[C@H]2CSCN2)cn1` [Example 56, (S)-Thiazolidine-4-carboxylic acid [(S)-1-[(6-amino-pyridin-3-ylmethyl)-carbamoyl]-2-(3,4-dichloro-phenyl)-ethyl]-amide], the figure is 7.1 nM; as for `CCCCN(C)[C@@H](C)C(=O)N[C@@H](Cc1ccc(F)cc1)C(=O)NCc1ccc(N)nc1` [Example 369, (S)—N-[(S)-1-[(6-Amino-pyridin-3-ylmethyl)-carbamoyl]-2-(4-fluoro-phenyl)-ethyl]-2-(butyl-methyl-amino)-propionamide], 29.1 nM.
Compound `Cc1nc(N)ccc1CNC(=O)[C@H](Cc1ccc(F)c(F)c1)NC(=O)[C@H](C)N1CCCCC1` [Example 432, (S)—N-[(S)-1-[(6-Amino-2-methyl-pyridin-3-ylmethyl)-carbamoyl]-2-(3,4-difluoro-phenyl)-ethyl]-2-piperidin-1-yl-propionamide] came in with an IC50 of 17 nM.
The value for `CCC(C)[C@H](N)C(=O)N[C@@H](C(=O)NCc1ccc(N)nc1)[C@H](O)c1ccccc1` (stereo partly drawn) [Example 224, (S)-2-Amino-3-methyl-pentanoic acid {(1R,2R)-1-[(6-amino-pyridin-3-ylmethyl)-carbamoyl]-2-hydroxy-2-phenyl-ethyl}-amide] was 61.6 nM; that for `Cc1nc(N)ccc1CNC(=O)[C@@H](Cc1ccc(Cl)c(Cl)c1)NC(=O)[C@H]1CCCN1C` [Example 190, (R)-1-Methyl-pyrrolidine-2-carboxylic acid [(R)-1-[(6-amino-2-methyl-pyridin-3-ylmethyl)-carbamoyl]-2-(3,4-dichloro-phenyl)-ethyl]-amide] was 1.8 nM.
